From US20260201008A1, “SECRETIN-DERIVED GLP1R SELECTIVE AGONISTS” (GUBRA A/S, priority 2023, published 2026)
Where two headings read alike, the source gives them in different places. Numbered stars: 1 amine (or outer) side, 2 acyl side, 3 side chain; on linkers, the order of the positions; unused ones are H or OH. Square brackets hold non-standard residues; d marks the D form. Side chains are listed from the residue outwards. Peptide text beside a SMILES is read from it. * marks the point of attachment. C20 diacid = O=C(O)CCCCCCCCCCCCCCCCCCC(=O)*; γGlu = O=C(O)[C@H](CCC(=O)[*:2])N[*:1]; AEEA = NCCOCCOCC(=O)O; Aib = CC(C)(N)C(=O)O

Columns and labels:
GLP1R = GLP1R (Homo sapiens, UniProt P43220); test: hGLP1R potency, cAMP accumulation in CHO-K1 cells stably overexpressing hGLP1R; type: cell-based; set-up: host or cells: CHO-K1; settings: for EC50: cAMP accumulation; for SCTR EC50/GLP1R EC50 ratio: cAMP accumulation in CHO-K1 cells; for Selectivity: SCTR EC50/GLP1R EC50 ratio
Sequence of GLP1R (P43220 24-463): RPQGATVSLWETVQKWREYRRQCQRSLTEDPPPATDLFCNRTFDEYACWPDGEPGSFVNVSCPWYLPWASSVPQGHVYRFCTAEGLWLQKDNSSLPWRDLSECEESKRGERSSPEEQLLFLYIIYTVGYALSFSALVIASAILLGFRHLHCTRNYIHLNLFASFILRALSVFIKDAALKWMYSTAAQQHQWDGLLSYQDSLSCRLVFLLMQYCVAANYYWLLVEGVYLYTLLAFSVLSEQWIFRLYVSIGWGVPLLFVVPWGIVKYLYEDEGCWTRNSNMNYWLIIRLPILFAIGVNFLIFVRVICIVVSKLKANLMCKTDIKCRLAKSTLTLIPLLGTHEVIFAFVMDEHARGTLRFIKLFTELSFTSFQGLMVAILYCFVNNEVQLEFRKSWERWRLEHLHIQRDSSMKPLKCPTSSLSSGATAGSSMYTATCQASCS
Procedure, shortened: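 TR-FRET cAMP read-out, one hour after reagent addition, following 30 min compound exposure at RT in DPBS/0.05% casein/0.5 mM IBMX. Crude peptides: 5 points, 10-fold steps, n=1. Purified peptides: 11 points, 3-fold steps, n=2. EC50 fitted with a variable-slope sigmoid.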

[1] = Turbidity of crude library peptides (absorbance at 600 nm); type: physicochemical; settings: Physical stability of peptides
Procedure, shortened: (§1)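 Fibril formation is scored as average ThT fluorescence from duplicate samples monitored for 72 h at 40° C with shaking stress. Turbidity is the absorbance at 600 nm taken before heating. Peptide concentration was 267 μM at pH 4.0 or pH 7.0.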

[2] = Fibril formation of crude library peptides (Thioflavin T); type: physicochemical; set-up: key: average ThT fluorescence emission at 480 nm (ex 450 nm), raw units; settings: Physical stability of peptides
Procedure, shortened: as §1

SCTR = SCTR (Homo sapiens, UniProt P47872); test: hSCTR potency, cAMP accumulation in CHO-K1 cells stably overexpressing hSCTR; type: cell-based; set-up: alternatively Euroscreen ES-712-AF; FAST-0161L; host or cells: CHO-K1; settings: cAMP accumulation
Sequence of SCTR (P47872 23-440): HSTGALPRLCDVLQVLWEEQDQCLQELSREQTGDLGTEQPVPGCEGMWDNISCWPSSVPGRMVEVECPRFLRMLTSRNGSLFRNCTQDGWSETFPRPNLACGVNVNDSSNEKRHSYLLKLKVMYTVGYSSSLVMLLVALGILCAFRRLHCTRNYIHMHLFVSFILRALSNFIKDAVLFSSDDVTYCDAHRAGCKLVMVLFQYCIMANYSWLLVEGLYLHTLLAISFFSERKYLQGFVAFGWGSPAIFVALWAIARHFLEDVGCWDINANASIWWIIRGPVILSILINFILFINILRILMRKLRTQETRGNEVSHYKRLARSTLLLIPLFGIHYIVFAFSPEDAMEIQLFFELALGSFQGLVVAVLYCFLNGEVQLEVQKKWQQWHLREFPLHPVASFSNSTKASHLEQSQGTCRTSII
Procedure, shortened: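 CHO-K1/hSCTR cells; DPBS + 0.05% casein + 0.5 mM IBMX; 30 min RT stimulation; cAMP by TR-FRET read at 1 h. Crude peptides: 5-point 10-fold dilutions, n=1. Purified: 11-point 3-fold dilutions, n=2. EC50 via variable-slope fit.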

[3] = CHO-K1 cells overexpressing hGLP1R, read-out: hGLP1R pEC50 (converted)
[4] = selectivity for hGLP1R over hSCTR
[5] = CHO-K1 cells overexpressing hSCTR, read-out: hSCTR pEC50 (converted)
[6] = CHO-K1 cells overexpressing hGLP1R, read-out: pEC50 hGLPR1 (converted)
[7] = CHO-K1 cells overexpressing hSCTR, read-out: pEC50 hSCTR (converted)

SMILES	EC50 (GLP1R; [3])	SCTR EC50/GLP1R EC50 ratio (GLP1R; [4])	Turbidity (pH 7) [1]	Fibril formation [2]	EC50 (SCTR; [5])	EC50 (GLP1R; CHO-K1 cells stably overexpressing hGLP1R, read-out: hGLP1R potency (pEC50) (converted))	SCTR EC50/GLP1R EC50 ratio (GLP1R; selectivity ratio, hSCTR vs hGLP1R)	EC50 (SCTR; CHO-K1 cells stably overexpressing hSCTR, read-out: hSCTR potency (pEC50) (converted))	Selectivity (GLP1R)	EC50 (GLP1R; [6])	EC50 (SCTR; [7])
CC(C)C[C@H](NC(=O)[C@H](Cc1ccccc1)NC(=O)[C@H](CCCNC(=N)N)NC(=O)[C@H](CCC(N)=O)NC(=O)[C@H](CC(C)C)NC(=O)C(C)(C)NC(=O)[C@H](C)NC(=O)[C@H](CCC(=O)O)NC(=O)[C@H](CCC(=O)O)NC(=O)[C@H](CCCCNC(=O)COCCOCCNC(=O)COCCOCCNC(=O)CC[C@H](NC(=O)CCCCCCCCCCCCCCCCCCC(=O)O)C(=O)O)NC(=O)[C@H](CC(C)C)NC(=O)[C@H](Cc1ccc(O)cc1)NC(=O)[C@H](CO)NC(=O)[C@@H](NC(=O)[C@H](CC(=O)O)NC(=O)[C@H](CO)NC(=O)[C@@H](NC(=O)[C@H](Cc1ccccc1)NC(=O)[C@@H](NC(=O)CNC(=O)[C@H](CCC(=O)O)NC(=O)C(C)(C)NC(=O)[C@@H](N)Cc1c[nH]cn1)[C@@H](C)O)[C@@H](C)O)C(C)C)C(=O)N[C@@H](CCC(=O)O)C(=O)N[C@@H](Cc1ccccc1)C(=O)N[C@@H](CC(C)C)C(=O)N[C@H](C(N)=O)C(C)C [compound 133] (H-H[Aib]EGTFTSDVSYLK([AEEA-AEEA-γGlu-C20 diacid])EEA[Aib]LQRFLEFLV-NH2)	0.0158 nM	23332	0.08	4303	398 nM	–	–	–	–	–	–
CC[C@H](C)[C@H](NC(=O)[C@H](Cc1ccccc1)NC(=O)[C@H](CCCNC(=N)N)NC(=O)[C@H](CCC(N)=O)NC(=O)[C@H](CC(C)C)NC(=O)[C@H](C)NC(=O)[C@H](C)NC(=O)CNC(=O)[C@H](CCC(=O)O)NC(=O)[C@H](CC(C)C)NC(=O)[C@H](CC(C)C)NC(=O)CNC(=O)[C@H](CO)NC(=O)[C@H](Cc1c[nH]c2ccccc12)NC(=O)[C@H](CC(=O)O)NC(=O)[C@H](CO)NC(=O)[C@@H](NC(=O)[C@H](Cc1ccccc1)NC(=O)[C@@H](NC(=O)CNC(=O)[C@H](CCC(=O)O)NC(=O)C(C)(C)NC(=O)[C@@H](N)Cc1c[nH]cn1)[C@@H](C)O)[C@@H](C)O)C(=O)N[C@@H](CCC(N)=O)C(=O)N[C@@H](Cc1c[nH]c2ccccc12)C(=O)N[C@@H](CC(C)C)C(=O)N[C@H](C(N)=O)C(C)C [compound 187] (H-H[Aib]EGTFTSDWSGLLEGAALQRFIQWLV-NH2)	–	–	0.62	13388	–	0.0398 nM	1437	50.1 nM	–	–	–
CC(C)C[C@H](NC(=O)[C@H](Cc1ccccc1)NC(=O)[C@H](CCCNC(=N)N)NC(=O)[C@H](CCC(N)=O)NC(=O)[C@@H](NC(=O)[C@H](C)NC(=O)[C@H](C)NC(=O)[C@H](CCC(=O)O)NC(=O)[C@H](CCC(=O)O)NC(=O)[C@H](CCCCNC(=O)COCCOCCNC(=O)COCCOCCNC(=O)CC[C@H](NC(=O)CCCCCCCCCCCCCCCCCCC(=O)O)C(=O)O)NC(=O)[C@H](CC(C)C)NC(=O)[C@@H](NC(=O)[C@H](CO)NC(=O)[C@@H](NC(=O)[C@H](CC(=O)O)NC(=O)[C@H](CO)NC(=O)[C@@H](NC(=O)[C@H](Cc1ccccc1)NC(=O)[C@@H](NC(=O)CNC(=O)[C@H](CCC(=O)O)NC(=O)C(C)(C)NC(=O)[C@@H](N)Cc1c[nH]cn1)[C@@H](C)O)[C@@H](C)O)C(C)C)[C@@H](C)O)[C@@H](C)O)C(=O)N[C@@H](CCC(=O)O)C(=O)N[C@@H](Cc1c[nH]cn1)C(=O)N[C@@H](CC(C)C)C(=O)N[C@H](C(N)=O)C(C)C [compound 102] (H-H[Aib]EGTFTSDVSTLK([AEEA-AEEA-γGlu-C20 diacid])EEAATQRFLEHLV-NH2)	0.01 nM	8851	0.08	6284	79.4 nM	–	–	–	–	–	–
CC(C)C[C@H](NC(=O)[C@H](Cc1ccccc1)NC(=O)[C@H](CCCNC(=N)N)NC(=O)[C@H](CCC(N)=O)NC(=O)[C@H](CCC(=O)O)NC(=O)[C@H](C)NC(=O)[C@H](C)NC(=O)[C@H](Cc1ccccc1)NC(=O)[C@H](CCC(=O)O)NC(=O)[C@H](CCCCNC(=O)COCCOCCNC(=O)COCCOCCNC(=O)CC[C@H](NC(=O)CCCCCCCCCCCCCCCCCCC(=O)O)C(=O)O)NC(=O)[C@H](CC(C)C)NC(=O)[C@H](CCC(=O)O)NC(=O)[C@H](CO)NC(=O)[C@@H](NC(=O)[C@H](CC(=O)O)NC(=O)[C@H](CO)NC(=O)[C@@H](NC(=O)[C@H](Cc1ccccc1)NC(=O)[C@@H](NC(=O)CNC(=O)[C@H](CCC(=O)O)NC(=O)C(C)(C)NC(=O)[C@@H](N)Cc1c[nH]cn1)[C@@H](C)O)[C@@H](C)O)C(C)C)C(=O)N[C@@H](CCC(=O)O)C(=O)N[C@@H](Cc1c[nH]cn1)C(=O)N[C@@H](CC(C)C)C(=O)N[C@H](C(N)=O)C(C)C [compound 31] (H-H[Aib]EGTFTSDVSELK([AEEA-AEEA-γGlu-C20 diacid])EFAAEQRFLEHLV-NH2)	–	–	0.08	10417	–	–	–	–	144477	0.0398 nM	6310 nM
CC(C)C[C@H](NC(=O)[C@H](Cc1ccccc1)NC(=O)[C@H](CCCNC(=N)N)NC(=O)[C@H](CCC(N)=O)NC(=O)[C@H](CO)NC(=O)[C@H](C)NC(=O)[C@H](C)NC(=O)[C@@H](NC(=O)[C@H](CCC(=O)O)NC(=O)[C@H](CCCCNC(=O)COCCOCCNC(=O)COCCOCCNC(=O)CC[C@H](NC(=O)CCCCCCCCCCCCCCCCCCC(=O)O)C(=O)O)NC(=O)[C@H](CC(C)C)NC(=O)[C@@H](NC(=O)[C@H](CO)NC(=O)[C@@H](NC(=O)[C@H](CC(=O)O)NC(=O)[C@H](CO)NC(=O)[C@@H](NC(=O)[C@H](Cc1ccccc1)NC(=O)[C@@H](NC(=O)CNC(=O)[C@H](CCC(=O)O)NC(=O)C(C)(C)NC(=O)[C@@H](N)Cc1c[nH]cn1)[C@@H](C)O)[C@@H](C)O)C(C)C)[C@@H](C)O)[C@@H](C)O)C(=O)N[C@@H](CCC(=O)O)C(=O)N[C@@H](Cc1c[nH]cn1)C(=O)N[C@@H](CC(C)C)C(=O)N[C@H](C(N)=O)C(C)C [compound 20] (H-H[Aib]EGTFTSDVSTLK([AEEA-AEEA-γGlu-C20 diacid])ETAASQRFLEHLV-NH2)	–	–	0.10	33108	–	–	–	–	22019	0.02 nM	398 nM
CC(C)C[C@H](NC(=O)[C@H](Cc1ccccc1)NC(=O)[C@H](CCCNC(=N)N)NC(=O)[C@H](CCC(N)=O)NC(=O)[C@H](CC(C)C)NC(=O)C(C)(C)NC(=O)[C@H](C)NC(=O)[C@H](CCC(=O)O)NC(=O)[C@H](CCC(=O)O)NC(=O)[C@H](CCCCNC(=O)COCCOCCNC(=O)COCCOCCNC(=O)CC[C@H](NC(=O)CCCCCCCCCCCCCCCCCCC(=O)O)C(=O)O)NC(=O)[C@H](CC(C)C)NC(=O)[C@H](Cc1ccc(O)cc1)NC(=O)[C@H](CO)NC(=O)[C@@H](NC(=O)[C@H](CC(=O)O)NC(=O)[C@H](CO)NC(=O)[C@@H](NC(=O)[C@H](Cc1ccccc1)NC(=O)[C@@H](NC(=O)CNC(=O)[C@H](CCC(=O)O)NC(=O)C(C)(C)NC(=O)[C@@H](N)Cc1c[nH]cn1)[C@@H](C)O)[C@@H](C)O)C(C)C)C(=O)N[C@@H](CCC(=O)O)C(=O)N[C@@H](Cc1ccc(O)cc1)C(=O)N[C@@H](CC(C)C)C(=O)N[C@H](C(N)=O)C(C)C [compound 144] (H-H[Aib]EGTFTSDVSYLK([AEEA-AEEA-γGlu-C20 diacid])EEA[Aib]LQRFLEYLV-NH2)	0.0158 nM	16042	0.08	5805	251 nM	–	–	–	–	–	–
CC(C)C[C@H](NC(=O)[C@H](Cc1ccccc1)NC(=O)[C@H](CCCNC(=N)N)NC(=O)[C@H](CCC(N)=O)NC(=O)[C@H](CCC(N)=O)NC(=O)[C@H](C)NC(=O)[C@H](C)NC(=O)[C@H](CCC(=O)O)NC(=O)[C@H](CCC(=O)O)NC(=O)[C@H](CCCCNC(=O)COCCOCCNC(=O)COCCOCCNC(=O)CC[C@H](NC(=O)CCCCCCCCCCCCCCCCCCC(=O)O)C(=O)O)NC(=O)[C@H](CC(C)C)NC(=O)[C@H](Cc1ccccc1)NC(=O)[C@H](CO)NC(=O)[C@@H](NC(=O)[C@H](CC(=O)O)NC(=O)[C@H](CO)NC(=O)[C@@H](NC(=O)[C@H](Cc1ccccc1)NC(=O)[C@@H](NC(=O)CNC(=O)[C@H](CCC(=O)O)NC(=O)C(C)(C)NC(=O)[C@@H](N)Cc1c[nH]cn1)[C@@H](C)O)[C@@H](C)O)C(C)C)C(=O)N[C@@H](CCC(=O)O)C(=O)N[C@@H](Cc1c[nH]cn1)C(=O)N[C@@H](CC(C)C)C(=O)N[C@H](C(N)=O)C(C)C [compound 83] (H-H[Aib]EGTFTSDVSFLK([AEEA-AEEA-γGlu-C20 diacid])EEAAQQRFLEHLV-NH2)	–	–	0.08	9070	–	–	–	–	54828	0.0316 nM	1580 nM
